Test systems include IGROV1 ovarian; SN12C renal; U251 CNS; MOLT-4 leukemia; HOP-62 NSCLC; SK-OV-3 ovarian; SF-295 CNS; HL-60(TB) leukemia; DU-145 prostate; BT-549 breast.
Holding throughout (assay): NCI tumour cell line growth inhibition, 48 h

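Five compound concentrations were applied to cells in 96-well plates for 48 hours; endpoints were derived by simple linear interpolation of the resulting dose-response curve. At the GI50, growth is halved. TGI is the concentration that stops growth completely.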

Among the data in PubChem BioAssay (NCI) are TGI and GI50 values, retold here.

In the case of `COC(=O)C1=C(C(=O)OC)SC(=C(N=Nc2ccccc2)c2ccccc2)S1`, the TGI in the test on IGROV1 ovarian, with SN12C renal, in the test on U251 CNS, in the test with MOLT-4 leukemia, in the test on HOP-62 NSCLC and in the test with SK-OV-3 ovarian was greater than 100 µM throughout. Also, the TGI in the test with SF-295 CNS and in the test on HL-60(TB) leukemia was greater than 100 µM in each case.
Turning to `CCC(/C=C/c1ccccc1)=N\Nc1ccc(Cl)c(Cl)c1`, the TGI in the test on IGROV1 ovarian was 37.5 µM; with SN12C renal it was 74.8 µM; in the test with U251 CNS, greater than 100 µM; in the test with MOLT-4 leukemia, greater than 100 µM; with HOP-62 NSCLC it was greater than 100 µM; in the test on SK-OV-3 ovarian, greater than 100 µM. The TGI with SF-295 CNS is greater than 100 µM; in the test on HL-60(TB) leukemia, 72.5 µM; in the test on DU-145 prostate it was greater than 100 µM.
For the compound `O=C(COc1cccc(/C=C2\COc3ccc(Cl)cc3C2=O)c1)c1ccc(Cl)cc1`, the GI50 is 0.54 µM in the test with IGROV1 ovarian; 13.7 µM in the test on SN12C renal; 13.8 µM with U251 CNS; 5.95 µM with MOLT-4 leukemia; 14.3 µM in the test with HOP-62 NSCLC; 18.4 µM in the test with SK-OV-3 ovarian. In addition, the GI50 in the test with SF-295 CNS was 24.9 µM; in the test on HL-60(TB) leukemia it was 8.99 µM; with DU-145 prostate, 14.7 µM. For the same compound, the TGI in the test with IGROV1 ovarian came out at 3.7 µM; with SN12C renal, 28.5 µM; in the test with U251 CNS, 26.7 µM; in the test with MOLT-4 leukemia, 24.3 µM; in the test on HOP-62 NSCLC, 27.7 µM; in the test on SK-OV-3 ovarian, 45.6 µM. Besides, the results for the TGI in the test on SF-295 CNS, with HL-60(TB) leukemia and in the test on DU-145 prostate were 39.6 µM, 31.5 µM and 27.8 µM, respectively.
With `Nc1c(C(=O)Nc2ccccc2)sc2nc3c(cc12)CN(Cc1ccccc1)CC3`, the GI50 in the test on IGROV1 ovarian is 37.8 µM; with SN12C renal, 65.7 µM; in the test with U251 CNS, 13.9 µM; in the test on MOLT-4 leukemia it was 31.3 µM; with HOP-62 NSCLC, 4.11 µM; in the test with SK-OV-3 ovarian, 3.53 µM. Also, the GI50 in the test on BT-549 breast is 16.8 µM; in the test with SF-295 CNS, 5.45 µM; with DU-145 prostate, 14.8 µM. Moreover, the TGI with IGROV1 ovarian is greater than 100 µM; in the test on SN12C renal it was greater than 100 µM; in the test on U251 CNS, greater than 100 µM; in the test on MOLT-4 leukemia it was greater than 100 µM; in the test with HOP-62 NSCLC, 33.3 µM; in the test with SK-OV-3 ovarian, greater than 100 µM. In addition, the TGI is 92.3 µM in the test on BT-549 breast, greater than 100 µM with SF-295 CNS and greater than 100 µM with DU-145 prostate.
With `CCOC(=O)c1nc(-c2ccccc2)oc1OCC`, the TGI with IGROV1 ovarian, with SN12C renal, with U251 CNS, in the test on MOLT-4 leukemia, in the test with HOP-62 NSCLC and with SK-OV-3 ovarian was greater than 100 µM each time. For the same compound, the TGI with SF-295 CNS and in the test with HL-60(TB) leukemia was greater than 100 µM throughout.
As for `N.N.NCCCCCCN.O=C([O-])CC(=O)[O-].O=C([O-])CC(=O)[O-].[Pt+4].[Pt+4]`, the GI50 with IGROV1 ovarian is greater than 100 µM; in the test with SN12C renal, 14.5 µM; in the test on U251 CNS, 47.7 µM; in the test with MOLT-4 leukemia it was 5.2 µM; with HOP-62 NSCLC it was 38.7 µM; in the test on SK-OV-3 ovarian, greater than 100 µM. Moreover, the GI50 in the test with SF-295 CNS was greater than 71.6 µM; in the test on HL-60(TB) leukemia, 23.7 µM. In addition, the TGI in the test on IGROV1 ovarian, in the test on SN12C renal, in the test on U251 CNS, with MOLT-4 leukemia, in the test with HOP-62 NSCLC and in the test on SK-OV-3 ovarian was greater than 100 µM each time. The TGI with SF-295 CNS and with HL-60(TB) leukemia was greater than 100 µM each time.
Regarding `COc1cc(/C=C/C(=O)c2sc(NNC(C)=O)nc2C)ccc1O`, the TGI with IGROV1 ovarian, in the test with SN12C renal, in the test with U251 CNS, with MOLT-4 leukemia, in the test with HOP-62 NSCLC and in the test on SK-OV-3 ovarian was greater than 100 µM throughout. Further, the TGI in the test on SF-295 CNS and in the test on HL-60(TB) leukemia was greater than 100 µM each time.
With `C[C@@H](NC1CCC[C@H]1O)c1ccccc1` (stereo partly drawn), the TGI in the test on IGROV1 ovarian, in the test with SN12C renal, in the test with U251 CNS, in the test on MOLT-4 leukemia, in the test with HOP-62 NSCLC and in the test with SK-OV-3 ovarian was greater than 100 µM in each case. Moreover, the TGI with SF-295 CNS and in the test with HL-60(TB) leukemia was greater than 100 µM each time.
`CS/C(=N\c1nccs1)NC(=O)c1cccc(Cl)c1`: the TGI in the test on IGROV1 ovarian is greater than 100 µM; in the test on SN12C renal, greater than 100 µM; with U251 CNS it was greater than 100 µM; with MOLT-4 leukemia, 89.6 µM; with HOP-62 NSCLC, greater than 100 µM; with SK-OV-3 ovarian, greater than 100 µM. Besides, the TGI in the test with SF-295 CNS and with HL-60(TB) leukemia was greater than 100 µM each time.
Turning to `COC(=O)C1=C(O)c2cc3c(cc2[C@H](c2cc(OC)c(OC)c(OC)c2)C1C(=O)OC)OCO3` (stereo partly drawn), the TGI is greater than 100 µM with IGROV1 ovarian; 88 µM in the test with SN12C renal; greater than 100 µM in the test with U251 CNS; greater than 100 µM in the test on MOLT-4 leukemia; greater than 100 µM with HOP-62 NSCLC; greater than 100 µM in the test on SK-OV-3 ovarian. For the same compound, the TGI in the test with SF-295 CNS and with HL-60(TB) leukemia was greater than 100 µM in each case.
Consider `O=C1CCC2(c3ccccc3)Nc3ncccc3N12` (stereo not drawn), for which the TGI with IGROV1 ovarian, in the test on SN12C renal, in the test with U251 CNS, with MOLT-4 leukemia, in the test with HOP-62 NSCLC and with SK-OV-3 ovarian was greater than 100 µM throughout. The TGI in the test on SF-295 CNS and with HL-60(TB) leukemia was greater than 100 µM each time.
In the case of `CC#CC1C(OC(=O)c2ccccc2)CCCC1(CI)N=[N+]=[N-]` (stereo not drawn), the TGI in the test with IGROV1 ovarian is greater than 100 µM; in the test with SN12C renal, greater than 100 µM; in the test with U251 CNS, greater than 100 µM; in the test with MOLT-4 leukemia, 44.4 µM; with HOP-62 NSCLC, greater than 100 µM; with SK-OV-3 ovarian, greater than 100 µM. For the same compound, the TGI in the test on SF-295 CNS was greater than 100 µM; in the test on HL-60(TB) leukemia, 42.2 µM.
As for `O=C1NC2C=CN(Cc3ccccc3)C=C2C(=O)N2CCCC12` (stereo not drawn), the TGI in the test on IGROV1 ovarian, in the test with SN12C renal, with U251 CNS, in the test on MOLT-4 leukemia, in the test with HOP-62 NSCLC and with SK-OV-3 ovarian was greater than 100 µM in each case. Besides, the TGI in the test with SF-295 CNS and in the test with HL-60(TB) leukemia was greater than 100 µM throughout.
